Reference: patent publication US9237747B2, “Herbicidal compositions comprising 4-amino-3-chloro-5-fluoro-6-(4-chloro-2-fluoro-3-methoxyphenyl) pyridine-2-carboxylic acid or a derivative thereof and insecticides” (priority 2013, dated 2016)
Where a name gives a salt, the structure may show the parent alone. Read-outs that look alike come from different tables or passages of the source.

How the values were obtained:
IPOHE = assay type: in vivo, Ipomoea hederacea
Method: (§1) Seeds or nutlets of the desired test plant species were planted in a soil matrix prepared by mixing a loam or sandy loam soil (e.g., 28.6 percent silt, 18.8 percent clay, and 52.6 percent sand, with a pH of about 5.8 and an organic matter content of about 1.8 percent) and calcareous grit in an 80 to 20 ratio. The soil matrix was contained in plastic pots with a volume of 1 quart and a surface area of 83.6 square centimeters (cm^2). […] The plants were grown for 8-22 days in a greenhouse with an approximate 14 hour (h) photoperiod which was maintained at about 29° C. during the day and 26° C. during the night. Nutrients (Peters Excel® 15-5-15 5-Ca 2-Mg and iron chelate) were applied in the irrigation solution as needed and water was added on a regular basis. Supplemental lighting was provided with overhead metal halide 1000-Watt lamps as necessary. The plants were employed for testing when they reached the first through fourth true leaf stage.
(§2) Treatments consisted of the acid or esters of 4-amino-3-chloro-6-(4-chloro-2-fluoro-3-methoxyphenyl)-5-fluoropyridine-2-carboxylic acid (Compound A), each formulated as an SC (suspension concentrate), and various insecticidal components alone and in combination. Forms of compound A were applied on an acid equivalent basis.
(§3) For treatments comprised of formulated compounds, measured amounts of compounds were placed individually in 25 mL glass vials and diluted in a volume of 1.25% volume per volume (v/v) Agri-Dex® crop oil concentrate to obtain 12× stock solutions. […] Application solutions were prepared by adding an appropriate amount of each stock solution (e.g., 1 mL) and diluted to the appropriate final concentrations with the addition of […] of an aqueous mixture of 1.25% (v/v) crop oil concentrate so that the final spray solutions contained 1.25+/−0.05% (v/v) crop oil concentrate.
(§4) As required, additional water and/or 97:3 v/v acetone/DMSO was added to individual application solutions so that the final acetone and DMSO concentrations of the application solutions being compared were 8.1% and 0.25%, respectively.
(§5) All stock solutions and applications solutions were visually inspected for compound compatibility prior to application. Spray solutions were applied to the plant material with an overhead Mandel track sprayer equipped with 8002E nozzles calibrated to deliver 187 L/ha over an application area of 0.503 square meters (m^2) at a spray height of 18 to 20 inches (46 to 50 cm) above average plant canopy height. Control plants were sprayed in the same manner with the solvent blank.
(§6) The treated plants and control plants were placed in a greenhouse as described above and watered by sub-irrigation to prevent wash-off of the test compounds. After approximately 3 weeks, the condition of the test plants as compared to that of the untreated plants was determined visually and scored on a scale of 0 to 100 percent where 0 corresponds to no injury or growth inhibition and 100 corresponds to complete kill.
(§7) Colby's equation was used to determine the herbicidal effects expected from the mixtures (Colby, S. R. Calculation of the synergistic and antagonistic response of herbicide combinations. Weeds 1967, 15, 20-22.).
(§8) The following equation was used to calculate the expected activity of mixtures containing two active ingredients, A and B: Expected=A+B−(A×B/100)

ECHCG = assay type: in vivo, Echinochloa crus-galli
Method: as §1, §2, §3, §4, §5, §6, §7, §8

DIGSA = assay type: in vivo, Digitaria sanguinalis
Method: as §1, §2, §3, §4, §5, §6, §7, §8

ECHCO = assay: Postemergence foliar-applied weed control, direct-seeded rice (greenhouse); assay type: in vivo, Echinochloa colonum
Method: as §1, §2, §3, §4, §5, §6, §7, §8

LEFFA = assay: as above; assay type: in vivo, Leptochloa fascicularis
Text: (§9) Seeds or nutlets of the desired test plant species were planted in a soil matrix prepared by mixing a loam or sandy loam soil (e.g., 28.6 percent silt, 18.8 percent clay, and 52.6 percent sand, with a pH of about 5.8 and an organic matter content of about 1.8 percent) and calcareous grit in an 80 to 20 ratio. The soil matrix was contained in plastic pots with a volume of 1 quart and a surface area of 83.6 square centimeters (cm^2). When required to ensure good germination and healthy plants, a fungicide treatment and/or other chemical or physical treatment was applied. The plants were grown for 8-22 days in a greenhouse with an approximate 14 hour (h) photoperiod which was maintained at about 29° C. during the day and 26° C. during the night. Nutrients (Peters Excel® 15-5-15 5-Ca 2-Mg and iron chelate) were applied in the irrigation solution as needed and water was added on a regular basis. Supplemental lighting was provided with overhead metal halide 1000-Watt lamps as necessary. The plants were employed for testing when they reached the first through fourth true leaf stage.
as §2
(§10) Treatment requirements were calculated based upon the rates being tested, the concentration of active ingredient or acid equivalent in the formulation, and a 12 milliliter (mL) application volume at a rate of 187 liters per hectare (L/ha).
as §3, §4, §5, §6, §7, §8

LEFCH = assay: whole plant or invertebrate; assay type: in vivo, Leptochloa chinensis
Method: as §1, §2, §3, §4, §5, §6, §7, §8

BRAPP = assay: Postemergence foliar-applied weed control, direct-seeded rice (greenhouse); assay type: in vivo, Brachiaria platyphylla
Text: as §9, §2, §10, §3, §4, §5, §6, §7, §8

CN(C)C(CSC(N)=O)CSC(N)=O [Cartap Hydrochloride, S,S′-(2-dimethylaminotrimethylene)bis(thiocarbamate), reference compound]
0%: Visual Weed Control (%) - 22 DAA IPOHE Obs (IPOHE; 500 g ai/ha alone) | Visual Weed Control (%) - 22 DAA ECHCG Obs (ECHCG; 250 g ai/ha alone) | Visual Weed Control (%) - 22 DAA ECHCG Obs (ECHCG; 500 g ai/ha alone)
10%: Visual Weed Control (%) - 22 DAA IPOHE Obs (IPOHE; 250 g ai/ha alone)

CCOP(=S)(OCC)Oc1nc(Cl)c(Cl)cc1Cl [Chlorpyrifos, O,O-diethyl O-3,5,6-trichloro-2-pyridyl phosphorothioate]
10%: Visual Weed Control (%) - 20 DAA IPOHE Obs (IPOHE; 180 g ai/ha alone) | Visual Weed Control (%) - 20 DAA IPOHE Obs (IPOHE; 360 g ai/ha alone)
5%: pest or weed control at 720 g/ha (LEFCH; Dinebra chinensis, post-emergence, 528 h, 720 g ai/ha alone, read-out: Visual Weed Control (%) - 22 DAA LEFCH Obs)
0%: Visual Weed Control (%) - 20 DAA IPOHE Obs (IPOHE; 720 g ai/ha alone) | Visual Weed Control (%) - 20 DAA ECHCG Obs (ECHCG; 180 g ai/ha alone) | Visual Weed Control (%) - 20 DAA ECHCG Obs (ECHCG; 360 g ai/ha alone) | Visual Weed Control (%) - 20 DAA ECHCG Obs (ECHCG; 720 g ai/ha alone) | Visual Weed Control (%) - 20 DAA DIGSA Obs (DIGSA; 180 g ai/ha alone) | Visual Weed Control (%) - 22 DAA DIGSA Obs (DIGSA; 180 g ai/ha alone) | Visual Weed Control (%) - 20 DAA DIGSA Obs (DIGSA; 360 g ai/ha alone) | Visual Weed Control (%) - 22 DAA DIGSA Obs (DIGSA; 360 g ai/ha alone) | Visual Weed Control (%) - 20 DAA DIGSA Obs (DIGSA; 500 g ai/ha alone) | Visual Weed Control (%) - 20 DAA DIGSA Obs (DIGSA; 720 g ai/ha alone) | Visual Weed Control (%) - 22 DAA DIGSA Obs (DIGSA; 720 g ai/ha alone) | Visual Weed Control (%) - 20 DAA ECHCO Obs (ECHCO; 180 g ai/ha alone) | Visual Weed Control (%) - 20 DAA ECHCO Obs (ECHCO; 360 g ai/ha alone) | Visual Weed Control (%) - 20 DAA ECHCO Obs (ECHCO; 720 g ai/ha alone) | Visual Weed Control (%) - 22 DAA LEFFA Obs (LEFFA; 180 g ai/ha alone) | Visual Weed Control (%) - 22 DAA LEFFA Obs (LEFFA; 360 g ai/ha alone) | Visual Weed Control (%) - 22 DAA LEFFA Obs (LEFFA; 720 g ai/ha alone) | Visual Weed Control (%) - 20 DAA LEFCH Obs (LEFCH; 180 g ai/ha alone) | Visual Weed Control (%) - 20 DAA LEFCH Obs (LEFCH; 360 g ai/ha alone) | Visual Weed Control (%) - 20 DAA LEFCH Obs (LEFCH; 500 g ai/ha alone) | Visual Weed Control (%) - 20 DAA LEFCH Obs (LEFCH; 720 g ai/ha alone) | Visual Weed Control (%) - 20 DAA BRAPP Obs (BRAPP; 180 g ai/ha alone) | Visual Weed Control (%) - 20 DAA BRAPP Obs (BRAPP; 360 g ai/ha alone) | Visual Weed Control (%) - 20 DAA BRAPP Obs (BRAPP; 720 g ai/ha alone)

N#Cc1nn(-c2c(Cl)cc(C(F)(F)F)cc2Cl)c(N)c1[S+]([O-])C(F)(F)F [Fipronil, 5-amino-[2,6-dichloro-4-(trifluoromethyl)phenyl]-4-[(1R,S)-(trifluoromethyl)sulfinyl]-1H-pyrazole-3-carbonitrile, reference compound]
0%: Visual Weed Control (%) - 20 DAA ECHCG Obs (ECHCG; 50 g ai/ha alone) | Visual Weed Control (%) - 20 DAA BRAPP Obs (BRAPP; 50 g ai/ha alone)

COP(N)(=O)SC (stereo not drawn) [Methamidophos, O,S-dimethyl phosphoramidothioate, reference compound]
0%: Visual Weed Control (%) - 19 DAA IPOHE Obs (IPOHE; 112 g ai/ha alone) | Visual Weed Control (%) - 19 DAA IPOHE Obs (IPOHE; 224 g ai/ha alone) | Visual Weed Control (%) - 19 DAA ECHCO Obs (ECHCO; 112 g ai/ha alone) | Visual Weed Control (%) - 19 DAA ECHCO Obs (ECHCO; 224 g ai/ha alone)

spinetoram
0%: Visual Weed Control (%) - 19 DAA ECHCO Obs (ECHCO; 30 g ai/ha alone) | Visual Weed Control (%) - 19 DAA ECHCO Obs (ECHCO; 60 g ai/ha alone) | Visual Weed Control (%) - 19 DAA ECHCO Obs (ECHCO; 120 g ai/ha alone) | Visual Weed Control (%) - 19 DAA LEFCH Obs (LEFCH; 30 g ai/ha alone) | Visual Weed Control (%) - 19 DAA LEFCH Obs (LEFCH; 60 g ai/ha alone) | Visual Weed Control (%) - 19 DAA LEFCH Obs (LEFCH; 120 g ai/ha alone)

spinosad [reference compound]
0%: Visual Weed Control (%) - 21 DAA IPOHE Obs (IPOHE; 70 g ai/ha alone) | Visual Weed Control (%) - 21 DAA IPOHE Obs (IPOHE; 140 g ai/ha alone) | Visual Weed Control (%) - 21 DAA IPOHE Obs (IPOHE; 280 g ai/ha alone) | Visual Weed Control (%) - 21 DAA LEFCH Obs (LEFCH; 140 g ai/ha alone) | Visual Weed Control (%) - 21 DAA LEFCH Obs (LEFCH; 280 g ai/ha alone)
